These results are taken from patent US20100015141A1, “4-PHENOXY-6-ARYL-1H-PYRAZOLO[3,4-D]PYRIMIDINE AND N-ARYL-6-ARYL-1H-PYRAZOLO[3,4-D]PYRIMIDIN-4-AMINE COMPOUNDS, THEIR USE AS MTOR KINASE AND PI3 KINASE INHIBITORS, AND THEIR SYNTHESES” (Wyeth, priority 2008, published 2010).

Holding throughout (type): biochemical
In experiment [1] the target is PI3K-γ (Homo sapiens, UniProt P48736). The experiment in a line: PI3K-gamma fluorescence polarization assay. The note with it: 20 μM PIP2, 25 μM ATP. The protocol:
(§1) The reaction buffer was 20 mM HEPES pH7.5, 2 mM MgCl2, 0.05% CHAPS, and 0.01% βME (added fresh). The substrate solution was 40 μM PIP2 (diC8, Echelon, Salt Lake City Utah cat #P-4508, 1 mM in water) and 50 μM ATP in the reaction buffer. Nunc 384-well black polypropylene fluorescent plates were used for PI3K assays. The assay is run by putting 9.5 μl of freshly diluted enzyme in the reaction buffer per well, adding 0.5 μl of diluted drug or DMSO, and mixing. Then 10 μl of the substrate solution is added to each well to start the reaction. A final concentration of 20 μM PIP2 and 25 μM ATP in the reaction was used. Reactions were allowed to proceed for 30-60 minutes at room temperature. After 30-60 minutes, 20 μl of a solution of 10 nM TAMRA detector (Red detector probe-Echelon) and 2.5 uM of GST-murineGRP (1.5 mg/ml in 17% glycerol) was added per well to stop the reaction. The resulting solution was mixed well and allowed to stand for 90-110 minutes before reading plate. Assay Plates were read on Perkin-Elmer Envision plate readers with appropriate filters for Tamra [BODIPY-TMRI(1,3,4,5)P4]. Data obtained were used to calculate enzymatic activity and enzyme inhibition by inhibitor compounds. It is important to keep Red probe solutions dark. This procedure is adapted from Echelon Biosciences Inc procedure for their PI3-Kinase fluorescence polarization activity Assay kit Product number K-1100.
For orientation: In fluorescence polarisation assays a small probe gives low polarisation when free and higher when bound to something large.

Experiment [2] concerns the target PI3K-α (Homo sapiens, UniProt P42336). The experiment in a line: PI3K-alpha fluorescence polarization assay. As to conditions: 20 μM PIP2, 25 μM ATP. The protocol: as §1
Experiment [3] addresses mTOR (Homo sapiens, UniProt P42345). The experiment in a line: mTOR enzyme assay (DELFIA, His6-S6K phosphorylation). Also on record: FLAG. The note with it: 100 μM ATP, 1.25 μM His6-S6K.

A value given as a limit tells only on which side of the number the result lay.

PI3K-α, sequence (P42336 whole entry, species assumed): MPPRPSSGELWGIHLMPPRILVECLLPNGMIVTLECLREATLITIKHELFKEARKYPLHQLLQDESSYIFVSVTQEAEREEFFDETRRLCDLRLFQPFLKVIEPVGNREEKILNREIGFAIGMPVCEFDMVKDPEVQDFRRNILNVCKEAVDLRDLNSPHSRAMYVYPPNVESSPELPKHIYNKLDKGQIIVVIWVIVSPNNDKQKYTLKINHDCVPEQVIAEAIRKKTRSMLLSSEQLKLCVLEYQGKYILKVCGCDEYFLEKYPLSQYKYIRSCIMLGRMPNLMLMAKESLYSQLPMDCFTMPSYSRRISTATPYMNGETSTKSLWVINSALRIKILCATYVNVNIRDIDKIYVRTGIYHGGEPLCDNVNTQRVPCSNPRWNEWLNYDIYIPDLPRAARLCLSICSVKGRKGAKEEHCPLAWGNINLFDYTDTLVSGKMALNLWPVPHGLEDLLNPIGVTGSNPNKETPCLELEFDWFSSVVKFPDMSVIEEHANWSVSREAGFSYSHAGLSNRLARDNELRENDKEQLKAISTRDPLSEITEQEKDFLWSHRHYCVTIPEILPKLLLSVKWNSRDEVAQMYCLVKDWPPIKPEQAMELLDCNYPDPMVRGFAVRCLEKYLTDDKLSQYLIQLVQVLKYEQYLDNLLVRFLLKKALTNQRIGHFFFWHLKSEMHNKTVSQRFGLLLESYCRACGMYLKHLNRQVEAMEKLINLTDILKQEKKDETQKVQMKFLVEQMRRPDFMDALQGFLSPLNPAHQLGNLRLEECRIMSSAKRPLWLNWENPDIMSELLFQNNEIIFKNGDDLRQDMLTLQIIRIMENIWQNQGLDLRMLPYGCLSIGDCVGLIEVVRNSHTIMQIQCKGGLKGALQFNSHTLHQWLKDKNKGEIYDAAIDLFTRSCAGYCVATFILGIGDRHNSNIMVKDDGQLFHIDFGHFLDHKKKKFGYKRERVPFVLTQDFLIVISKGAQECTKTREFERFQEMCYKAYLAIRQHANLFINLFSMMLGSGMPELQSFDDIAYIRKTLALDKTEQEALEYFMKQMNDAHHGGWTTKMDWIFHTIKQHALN
PI3K-α, sequence (P27986 whole entry partner, species assumed): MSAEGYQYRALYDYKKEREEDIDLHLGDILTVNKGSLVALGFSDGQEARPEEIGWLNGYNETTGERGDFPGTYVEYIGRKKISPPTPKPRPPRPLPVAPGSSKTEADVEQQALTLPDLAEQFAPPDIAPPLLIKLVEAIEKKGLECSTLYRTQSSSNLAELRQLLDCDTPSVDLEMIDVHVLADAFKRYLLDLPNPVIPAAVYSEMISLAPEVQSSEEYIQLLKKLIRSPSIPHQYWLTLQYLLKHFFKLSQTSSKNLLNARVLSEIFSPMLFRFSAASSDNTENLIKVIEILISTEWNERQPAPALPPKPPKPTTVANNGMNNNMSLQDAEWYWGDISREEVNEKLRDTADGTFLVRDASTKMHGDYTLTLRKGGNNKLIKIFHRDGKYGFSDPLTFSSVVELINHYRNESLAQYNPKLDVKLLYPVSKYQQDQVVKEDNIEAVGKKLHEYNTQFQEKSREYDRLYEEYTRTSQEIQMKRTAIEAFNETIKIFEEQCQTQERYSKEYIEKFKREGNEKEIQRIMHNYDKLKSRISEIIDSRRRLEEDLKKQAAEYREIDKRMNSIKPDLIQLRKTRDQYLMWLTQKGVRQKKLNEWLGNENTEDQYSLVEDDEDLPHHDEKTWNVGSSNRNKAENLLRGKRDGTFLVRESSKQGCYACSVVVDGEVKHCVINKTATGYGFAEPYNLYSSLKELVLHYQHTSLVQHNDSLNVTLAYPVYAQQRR
PI3K-γ, sequence (P48736 whole entry, species assumed): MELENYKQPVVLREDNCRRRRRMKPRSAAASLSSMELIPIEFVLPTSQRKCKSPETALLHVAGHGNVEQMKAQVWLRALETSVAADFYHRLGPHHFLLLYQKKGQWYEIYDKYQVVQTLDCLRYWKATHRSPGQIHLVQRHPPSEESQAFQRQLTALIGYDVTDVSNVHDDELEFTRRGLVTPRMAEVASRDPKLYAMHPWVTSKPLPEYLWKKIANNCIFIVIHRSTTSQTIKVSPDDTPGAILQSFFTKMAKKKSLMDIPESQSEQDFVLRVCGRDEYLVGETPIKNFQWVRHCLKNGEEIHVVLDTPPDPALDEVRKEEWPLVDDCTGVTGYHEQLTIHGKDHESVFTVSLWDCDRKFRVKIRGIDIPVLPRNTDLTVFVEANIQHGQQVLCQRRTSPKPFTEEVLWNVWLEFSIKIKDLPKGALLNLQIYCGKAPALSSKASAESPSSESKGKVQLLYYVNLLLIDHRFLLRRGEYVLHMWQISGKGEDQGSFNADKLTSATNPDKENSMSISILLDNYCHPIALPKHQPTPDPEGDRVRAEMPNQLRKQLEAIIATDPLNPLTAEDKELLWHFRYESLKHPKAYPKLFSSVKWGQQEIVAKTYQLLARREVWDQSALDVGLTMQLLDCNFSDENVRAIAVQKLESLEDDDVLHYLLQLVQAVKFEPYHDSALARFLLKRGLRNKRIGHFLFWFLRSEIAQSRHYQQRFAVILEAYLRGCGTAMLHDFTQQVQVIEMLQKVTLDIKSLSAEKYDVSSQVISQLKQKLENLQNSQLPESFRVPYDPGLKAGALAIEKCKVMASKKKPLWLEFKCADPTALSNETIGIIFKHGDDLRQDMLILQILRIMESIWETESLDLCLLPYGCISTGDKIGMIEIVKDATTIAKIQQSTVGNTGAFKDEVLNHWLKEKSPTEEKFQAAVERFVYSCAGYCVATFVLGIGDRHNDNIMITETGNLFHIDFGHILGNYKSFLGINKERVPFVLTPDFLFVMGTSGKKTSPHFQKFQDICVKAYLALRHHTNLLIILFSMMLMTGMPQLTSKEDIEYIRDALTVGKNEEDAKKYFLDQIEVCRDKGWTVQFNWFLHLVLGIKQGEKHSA

A word on the IC50: it is the point on the concentration scale where inhibition reaches its midpoint. The low end stands for inhibition by little substance, the high end for a need for much substance. For `Cn1ncc2c(Nc3ccc(C(N)=O)cc3)nc(-c3ccccc3)nc21` [Example 11, 4-[(1-methyl-6-phenyl-1H-pyrazolo[3,4-d]pyrimidin-4-yl)amino]benzamide], the IC50 in experiment [1] is 1.58 µM; in experiment [2] it was 0.167 µM; in experiment [3], 0.95 µM.

With `CN(c1ccc(C(N)=O)cc1)c1nc(-c2ccccc2)nc2c1cnn2C` [Example 34, 4-[methyl(1-methyl-6-phenyl-1H-pyrazolo[3,4-d]pyrimidin-4-yl)amino]benzamide], the IC50 was above 10 µM in experiment [1], 6.7 µM in experiment [2] and 16 µM in experiment [3].

As to `CC(=O)Nc1ccc(N(C)c2nc(-c3ccccc3)nc3c2cnn3C)cc1` [Example 35, N-{4-[methyl(1-methyl-6-phenyl-1H-pyrazolo[3,4-d]pyrimidin-4-yl)amino]phenyl}acetamide], the 50% inhibitory concentration (IC50) in experiment [1] turned out to be 7.47 µM; in experiment [2], 1.5 µM; in experiment [3] it was 4.7 µM.

For the compound `COc1cccc(-c2nc(Oc3ccc4[nH]ccc4c3)c3cnn(C)c3n2)c1` [Example 38, 4-(1H-indol-5-yloxy)-6-(3-methoxyphenyl)-1-methyl-1H-pyrazolo[3,4-d]pyrimidine], the IC50 in experiment [1] amounted to 1.14 µM; in experiment [2], 0.298 µM; in experiment [3] it was 2.5 µM.

Consider `COc1ccc(-c2nc(Oc3ccc4[nH]ccc4c3)c3cnn(C)c3n2)cc1OC` [Example 39, 6-(3,4-dimethoxyphenyl)-4-(1H-indol-5-yloxy)-1-methyl-1H-pyrazolo[3,4-d]pyrimidine], for which the IC50 in experiment [1] is 0.118 µM; in experiment [2] it was 0.16 µM; in experiment [3], 2.8 µM.

For `Cn1ncc2c(Oc3ccc4[nH]ccc4c3)nc(-c3cccnc3)nc21` [Example 41, 4-(1H-indol-5-yloxy)-1-methyl-6-pyridin-3-yl-1H-pyrazolo[3,4-d]pyrimidine], the IC50 in experiment [1] worked out at 0.428 µM; in experiment [2], 0.215 µM; in experiment [3] it was 7.2 µM.

In the case of `Cn1ncc2c(Oc3ccc4[nH]ccc4c3)nc(-c3cccc(C#N)c3)nc21` [Example 43, 3-[4-(1H-indol-5-yloxy)-1-methyl-1H-pyrazolo[3,4-d]pyrimidin-6-yl]benzonitrile], the concentration for half-maximal inhibition (IC50) in experiment [1] was 1.61 µM; in experiment [2], 0.598 µM; in experiment [3], 8.4 µM.

Take `COc1cccc(-c2nc(Oc3ccc(OC)c(OC)c3)c3cnn(C)c3n2)c1` [Example 45, 4-(3,4-dimethoxyphenoxy)-6-(3-methoxyphenyl)-1-methyl-1H-pyrazolo[3,4-d]pyrimidine]: the IC50 in experiment [1] is 1.29 µM; in experiment [2] it was 0.653 µM; in experiment [3], above 20 µM.

Consider `CC(=O)Nc1ccc(Oc2nc(-c3cccc(-c4ccccc4)c3)nc3c2cnn3C)cc1` [Example 53, N-{4-[(6-biphenyl-3-yl-1-methyl-1H-pyrazolo[3,4-d]pyrimidin-4-yl)oxy]phenyl}acetamide], for which the IC50 in experiment [1] was above 10 µM; in experiment [2], 4.62 µM.

`CC(=O)Nc1ccc(Oc2nc(-c3ccc(O)cc3)nc3c2cnn3C)cc1` [Example 54, N-(4-{[6-(4-hydroxyphenyl)-1-methyl-1H-pyrazolo[3,4-d]pyrimidin-4-yl]oxy}phenyl)acetamide]: the values for the half-inhibitory concentration (IC50) in experiment [1], in experiment [2] and in experiment [3] were 0.398 µM, 0.266 µM and 4.9 µM, respectively.

Take `CC(=O)Nc1ccc(Oc2nc(-c3ccc4[nH]ccc4c3)nc3c2cnn3C)cc1` [Example 55, N-(4-{[6-(1H-indol-5-yl)-1-methyl-1H-pyrazolo[3,4-d]pyrimidin-4-yl]oxy}phenyl)acetamide]: the results for the IC50 in experiment [1], in experiment [2] and in experiment [3] were 0.6 µM, 0.387 µM and 0.57 µM, respectively.

Turning to `Cn1ncc2c(Oc3ccc4[nH]ccc4c3)nc(-c3ccc(-c4ccccc4)cc3)nc21` [Example 56, 6-biphenyl-4-yl-4-(1H-indol-5-yloxy)-1-methyl-1H-pyrazolo[3,4-d]pyrimidine], the concentration for half-maximal inhibition (IC50) in experiment [1] is above 10 µM; in experiment [2], 11.5 µM; in experiment [3] it was 16 µM.

In the case of `COc1ccc2cc(-c3nc(Oc4ccc5[nH]ccc5c4)c4cnn(C)c4n3)ccc2c1` [Example 57, 4-(1H-indol-5-yloxy)-6-(6-methoxy-2-naphthyl)-1-methyl-1H-pyrazolo[3,4-d]pyrimidine], the IC50 in experiment [1] is above 10 µM; in experiment [2], 3.22 µM; in experiment [3] it was 12 µM.

Consider `CC(C)c1ccc(-c2nc(Oc3ccc4[nH]ccc4c3)c3cnn(C)c3n2)cc1` [Example 58, 4-(1H-indol-5-yloxy)-6-(4-isopropylphenyl)-1-methyl-1H-pyrazolo[3,4-d]pyrimidine], for which the results for the IC50 in experiment [1], in experiment [2] and in experiment [3] were 10.6 µM, 3.8 µM and above 20 µM, respectively.

With `Cn1cc(-c2nc(Oc3ccc4[nH]ccc4c3)c3cnn(C)c3n2)cn1` [Example 59, 4-(1H-indol-5-yloxy)-1-methyl-6-(1-methyl-1H-pyrazol-4-yl)-1H-pyrazolo[3,4-d]pyrimidine], the IC50 in experiment [1] is 2.51 µM; in experiment [2], 2.87 µM; in experiment [3], above 20 µM.

`Cn1ncc2c(Nc3ccc(C(N)=O)cc3)nc(-c3ccc(-c4ccccc4)cc3)nc21` [Example 60, 4-[(6-biphenyl-4-yl-1-methyl-1H-pyrazolo[3,4-d]pyrimidin-4-yl)amino]benzamide]: the IC50 in experiment [1] is above 10 µM; in experiment [2], 8.55 µM; in experiment [3] it was above 20 µM.

`CC(C)c1ccc(-c2nc(Nc3ccc(C(N)=O)cc3)c3cnn(C)c3n2)cc1` [Example 61, 4-{[6-(4-isopropylphenyl)-1-methyl-1H-pyrazolo[3,4-d]pyrimidin-4-yl]amino}benzamide]: the IC50 in experiment [1] is above 10 µM; in experiment [2] it was 2.46 µM; in experiment [3], above 20 µM.

In the case of `Cn1cc(-c2nc(Nc3ccc(C(N)=O)cc3)c3cnn(C)c3n2)cn1` [Example 62, 4-{[1-methyl-6-(1-methyl-1H-pyrazol-4-yl)-1H-pyrazolo[3,4-d]pyrimidin-4-yl]amino}benzamide], the half-inhibitory concentration (IC50) came out at 1.59 µM in experiment [1], 0.603 µM in experiment [2] and 4.8 µM in experiment [3].

On to `Cn1ncc2c(Nc3ccc(C(N)=O)cc3)nc(-c3ccoc3)nc21` [Example 65, 4-{[6-(3-furyl)-1-methyl-1H-pyrazolo[3,4-d]pyrimidin-4-yl]amino}benzamide], for which the IC50 in experiment [1] came out at 1.71 µM; in experiment [2], 0.314 µM; in experiment [3], 1.3 µM.

As for `Cn1ncc2c(Oc3ccc4[nH]ccc4c3)nc(-c3cccc(Cl)c3)nc21` [Example 66, 6-(3-chlorophenyl)-4-(1H-indol-5-yloxy)-1-methyl-1H-pyrazolo[3,4-d]pyrimidine], the IC50 in experiment [1] was 1.16 µM; in experiment [2] it was 0.762 µM; in experiment [3], above 20 µM.

Turning to `Cn1ncc2c(Oc3ccc4[nH]ccc4c3)nc(-c3cccc([N+](=O)[O-])c3)nc21` [Example 67, 4-(1H-indol-5-yloxy)-1-methyl-6-(3-nitrophenyl)-1H-pyrazolo[3,4-d]pyrimidine], the IC50 was found to be 1.26 µM in experiment [1], 0.66 µM in experiment [2] and 16 µM in experiment [3].

Consider `Cn1ncc2c(Oc3ccc4[nH]ccc4c3)nc(-c3ccoc3)nc21` [Example 68, 6-(3-furyl)-4-(1H-indol-5-yloxy)-1-methyl-1H-pyrazolo[3,4-d]pyrimidine], for which the IC50 is 1.03 µM in experiment [1], 1.05 µM in experiment [2] and above 20 µM in experiment [3].

`Cn1ncc2c(Oc3ccc4[nH]ccc4c3)nc(-c3cccc(OCc4ccccc4Cl)c3)nc21` [Example 69, 6-{3-[(2-chlorobenzyl)oxy]phenyl}-4-(1H-indol-5-yloxy)-1-methyl-1H-pyrazolo[3,4-d]pyrimidine]: the IC50 is above 10 µM in experiment [1], 10.8 µM in experiment [2] and above 20 µM in experiment [3].

On to `Cc1noc(C)c1-c1nc(Oc2ccc3[nH]ccc3c2)c2cnn(C)c2n1` [Example 72, 6-(3,5-dimethylisoxazol-4-yl)-4-(1H-indol-5-yloxy)-1-methyl-1H-pyrazolo[3,4-d]pyrimidine], for which the IC50 in experiment [1] was 1.35 µM; in experiment [2], 0.58 µM; in experiment [3] it was above 20 µM.

In the case of `COc1ccc(Oc2nc(-c3ccccc3)nc3c2cnn3C)cc1OC` [Example 73, 4-(3,4-dimethoxyphenoxy)-1-methyl-6-phenyl-1H-pyrazolo[3,4-d]pyrimidine], the concentration for half-maximal inhibition (IC50) is above 9.6 µM in experiment [1], 1.76 µM in experiment [2] and 8.2 µM in experiment [3].

Take `CC(=O)Nc1ccc(Oc2nc(-c3ccccc3)nc3c2cnn3C)cc1` [Example 74, N-{4-[(1-methyl-6-phenyl-1H-pyrazolo[3,4-d]pyrimidin-4-yl)oxy]phenyl}acetamide]: the IC50 was determined as 1.34 µM in experiment [1], 0.637 µM in experiment [2] and 5.5 µM in experiment [3].

For `Cn1ncc2c(Oc3ccc(C(N)=O)cc3)nc(-c3ccccc3)nc21` [Example 75, 4-[(1-methyl-6-phenyl-1H-pyrazolo[3,4-d]pyrimidin-4-yl)oxy]benzamide], the IC50 in experiment [1] came to 1.72 µM; in experiment [2] it was 1.02 µM; in experiment [3] it was 9.2 µM.
